Source: patent publication US5821247A, “Hydroquinone derivative and pharmaceutical use thereof” (Japan Energy Corporation, priority 1996, dated 1998)

What was measured:
[1] = system: picryl chloride-induced dermatitis; experiment: Inhibition of picryl chloride-induced dermatitis (type IV allergic inflammation model, ear swelling, Asherson's method); format: in vivo, ICR male mice; settings: applied on ear just after challenge, ear thickness at 24 h
Experimental: Evaluation 1: Inhibition of picryl chloride-induced dermatitis
Effect of the compounds of the present invention on picryl chloride-induceddermatitis, which is a typical model of type IV allergic inflammation, was estimated by the Asherson's method [Immunology, 15, 405 (1968)] in the following manner.
A 7% (w/v) solution of picryl chloride in acetone (0.1 mL) was applied on a portion of the abdominal skin of each of ICR male mice to sensitize the mice. After 7 days, a 1% (w/v) solution of picryl chloride in acetone (0.02 mL) was applied on the ears of the individual mice to induce allergic reaction. Just after the challenge, 0.04 mL of acetone (control) or a 0.25-2.5% (w/v) solution of the test compound in acetone was applied on the ear. Increase of the ear thickness of the individual mice was measured at 24 h after the challenge, and inhibitory effect of the test compound on the dermatitis was estimated based on the difference in ear thickness between before and after the induction of the allergic reaction.

albumin-induced asthma = experiment: Inhibition of albumin-induced asthma (air way resistance, double flow plethysmography); format: in vivo, Hartley male guinea pigs; settings: 100 mg/kg, orally 1 h before and 3 h after the challenge
Experimental: Evaluation 2: Inhibition of albumin-induced asthma
Effect of the compounds of the present invention on albumin-induced asthma was estimated in the following manner.
Inhalation of 1% ovalbumin using ultrasonic nebulizer into Hartley male guinea pigs was performed 10 min/day over 8 days to sensitize the guinea pigs. One week after the last sensitization, inhalation of 2% ovalbumin was performed for 5 min. to induce allergic reaction. Metyrapone (10 mg/kg, i.v.) was administered at 24 h and 1 h before the challenge, propylene glycol (control) or a solution of the test compound in propylene glycol was orally administered at 1 h before and 3 h after the challenge, and pyrilamine (10 mg/kg, i.p.) was intraperitoneally administered at 30 min before the challenge. Air way resistance was measured by double flow plethysmography at 1 min, 4 h, 5 h, 6 h, 7 h, and 8 h after the challenge, and inhibitory effect of the test compound on the asthma was estimated based on the measurements obtained.

[2] = Metabolite found in plasma after oral administration of the compound of Example 1; format: in vivo; settings: compound of Example 1 orally administered to guinea pig
Source text: The title compound was obtained by repeating substantially the same procedure as Example 1, except using 4-(3,5,6-trimethyl-1,4-benzoquinon-2-yl)-2-hydroxy-2-methylbutyric acid which had been prepared by oxidation of 6-hydroxy-2,5,7,8-tetramethylchroman-2-carboxylic acid with ammonium cerium (IV) nitrate (yield 62%).

[3] = concentration 0.25% (w/v) in acetone
[4] = concentration 0.75% (w/v) in acetone

Row | SMILES | Inhibition (%) of picryl chloride-induced dermatitis [1, 4] [%] | also measured
1 | Cc1c(C)c2c(c(C)c1O)CCC(C)(C(=O)Nc1c(N)n(-c3ccccc3)c(=O)n(C)c1=O)O2 (stereo not drawn) [Example 1, 6-Amino-5-(6-hydroxy-2,5,7,8-tetramethvlchroman-2-carboxamido)-3-methyl-1-phenyl-2,4 (1H. 3H)-pyrimidinedione] |  | Inhibition (%) of picryl chloride-induced dermatitis [1, 3]: 69%; inhibition on the air way reaction at 1 min after the challenge (albumin-induced asthma; 1 min after the challenge): 62%; inhibition on the air way reaction (AUC) during 4-8 h after the challenge (albumin-induced asthma; AUC 4-8 h): 50%
2 | Cc1c(C)c2c(c(C)c1O)CC[C@](C)(C(=O)Nc1c(N)n(-c3ccccc3)c(=O)n(C)c1=O)O2 [Example 2] | 65 | 
3 | Cc1c(C)c2c(c(C)c1O)CC[C@@](C)(C(=O)Nc1c(N)n(-c3ccccc3)c(=O)n(C)c1=O)O2 [Example 3, 6-Amino-5-(6-hydroxy-2,5,7,8-tetramethylchroman-2(S)-carboxamido)-3-methyl-1-phenyl-2,4 (1H, 3H) -pyrimidinedione] | 69 | 
4 | CNc1c(NC(=O)C2(C)CCc3c(C)c(O)c(C)c(C)c3O2)c(=O)n(C)c(=O)n1-c1ccccc1 (stereo not drawn) [Example 11, 5-(6-Hydroxy-2,5,7,8-tetramethvlchroman-2-carboxamido)-3-methyl-6-methylamino-1-phenyl-2,4 (1H, 3H) -pyrimidinedione] | 44 | 
5 | COc1c(C)c(C)c2c(c1C)CCC(C)(C(=O)Nc1c(N)n(-c3ccccc3)c(=O)n(C)c1=O)O2 (stereo not drawn) [Example 13, 6-Amino-5-(6-methoxy-2,5.7,8-tetramethylchroman-2-carboxamido)-3-methyl-1-phenyl-2,4 (1H, 3H)-pyrimidinedione] |  | Inhibition (%) of picryl chloride-induced dermatitis ([1]; concentration 2.50% (w/v) in acetone): 33%
6 | CC(=O)Oc1c(C)c(C)c2c(c1C)CCC(C)(C(=O)Nc1c(N)n(-c3ccccc3)c(=O)n(C)c1=O)O2 (stereo not drawn) [Example 14, 5-(6-Acetoxy-2.5,7,8-tetramethvlchroman-2-carboxamido)-6-amino-3-methyl-1-phenyl-2,4 (1H, 3H)-pyrimidinedione] | 53 | 
7 | CC1=C(C)C(=O)C(CCC(C)(O)C(=O)Nc2c(N)n(-c3ccccc3)c(=O)n(C)c2=O)=C(C)C1=O (stereo not drawn) [Example 15, 6-Amino-3-methyl-1-phenyl-5-[4-(3,5,6-trimethyl-1,4-benzoquinon-2-yl)-2-hydroxy-2-methylbutyramido]-2,4 (1H, 3H)-pyrimidinedione] | 70 | found in plasma as metabolite of the compound of Example 1 [2]: found in plasma a guinea pig as one of metabolites
8 | Cc1c(C)c2c(c(C)c1O)CCC(C)(CNc1c(N)n(-c3ccccc3)c(=O)n(C)c1=O)O2 (stereo not drawn) [Example 17, 6-Amino-5-[(6-hydroxy-2,5,7,8-tetramethyl-2-chromanylmethyl)amino]-3-methyl-1-phenyl-2,4 (1H, 3H) -pyrimidinedione] | 80 | 
9 | CCCCN(Cc1c(N)n(-c2ccccc2)c(=O)n(C)c1=O)C(=O)C1(C)CCc2c(C)c(O)c(C)c(C)c2O1 (stereo not drawn) [Example 19, 6-Amino-5-(N-butyl-6-hydroxy-2,5,7,8-tetramethylchroman-2-carboxamidomethyl)-3-methyl-1-phenyl-2,4 (1H, 3H)-pyrimidinedione] |  | Inhibition (%) of picryl chloride-induced dermatitis [1, 3]: 49%
